# Measured values taken from ChEMBL document CHEMBL1201862, “PubChem BioAssay data set” (2004).
# Activity calls are given as the source filed them.
# Tests used:
# [1] = target: T1, Beta-2 adrenergic receptor (Homo sapiens, UniProt P07550); assay: Dose response for HTS for Beta-2AR agonists via FAP method from Powderset1.; type: functional
# [2] = target: T1, Beta-2 adrenergic receptor; assay: ADRB2 activation measured by internalization – cell-based, FAP fluorogen, flow cytometry, cherry pick 1, dose response (AID 588763); type: functional
# [3] = target: Galanin receptor type 3 (Homo sapiens, UniProt O60755); assay: Fluorescence-based cell-based primary high throughput dose response assay to identify antagonists of the Galanin Receptor 3 (GalR3).; type: functional
# Galanin receptor type 3, sequence (O60755 whole entry): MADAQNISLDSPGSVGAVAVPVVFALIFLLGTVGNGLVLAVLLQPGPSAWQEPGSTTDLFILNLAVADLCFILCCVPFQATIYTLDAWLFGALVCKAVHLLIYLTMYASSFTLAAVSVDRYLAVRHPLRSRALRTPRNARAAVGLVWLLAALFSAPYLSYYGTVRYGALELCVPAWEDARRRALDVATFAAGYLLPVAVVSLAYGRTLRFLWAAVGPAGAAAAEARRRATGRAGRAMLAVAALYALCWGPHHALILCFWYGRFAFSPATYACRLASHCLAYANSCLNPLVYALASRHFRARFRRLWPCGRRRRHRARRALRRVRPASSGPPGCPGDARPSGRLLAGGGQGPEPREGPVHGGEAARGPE
# [4] = cells; type: functional, cell-based; details: HEK-CNG
# [5] = general mammalian cell viability loss – inhibitor set, cherry-pick, set 2, cytotoxicity control for miR-122 modulator project, dose response (AID 720697); type: functional, cell-based
# [6] = target: Induced myeloid leukemia cell differentiation protein Mcl-1 (Homo sapiens, UniProt Q07820); type: functional
# Induced myeloid leukemia cell differentiation protein Mcl-1, sequence (Q07820 whole entry): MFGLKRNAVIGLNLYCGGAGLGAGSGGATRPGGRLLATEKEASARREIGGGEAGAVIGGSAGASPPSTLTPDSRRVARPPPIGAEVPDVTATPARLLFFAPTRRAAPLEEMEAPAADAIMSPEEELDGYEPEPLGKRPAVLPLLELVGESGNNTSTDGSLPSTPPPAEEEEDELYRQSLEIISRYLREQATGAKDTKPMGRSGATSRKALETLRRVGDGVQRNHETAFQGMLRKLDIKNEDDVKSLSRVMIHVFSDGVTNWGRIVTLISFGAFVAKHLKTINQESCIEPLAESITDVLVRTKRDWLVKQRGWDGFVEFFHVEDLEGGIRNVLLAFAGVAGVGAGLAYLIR
# [7] = target: Metabotropic glutamate receptor 3 (Rattus norvegicus, UniProt P31422); assay: inhibitors of rat mGlu3 Galpha15 signaling – TREx293 cells, calcium flux, mGlu3 NAM project, dose response (AID 651840); type: functional
# Metabotropic glutamate receptor 3, sequence (P31422 whole entry): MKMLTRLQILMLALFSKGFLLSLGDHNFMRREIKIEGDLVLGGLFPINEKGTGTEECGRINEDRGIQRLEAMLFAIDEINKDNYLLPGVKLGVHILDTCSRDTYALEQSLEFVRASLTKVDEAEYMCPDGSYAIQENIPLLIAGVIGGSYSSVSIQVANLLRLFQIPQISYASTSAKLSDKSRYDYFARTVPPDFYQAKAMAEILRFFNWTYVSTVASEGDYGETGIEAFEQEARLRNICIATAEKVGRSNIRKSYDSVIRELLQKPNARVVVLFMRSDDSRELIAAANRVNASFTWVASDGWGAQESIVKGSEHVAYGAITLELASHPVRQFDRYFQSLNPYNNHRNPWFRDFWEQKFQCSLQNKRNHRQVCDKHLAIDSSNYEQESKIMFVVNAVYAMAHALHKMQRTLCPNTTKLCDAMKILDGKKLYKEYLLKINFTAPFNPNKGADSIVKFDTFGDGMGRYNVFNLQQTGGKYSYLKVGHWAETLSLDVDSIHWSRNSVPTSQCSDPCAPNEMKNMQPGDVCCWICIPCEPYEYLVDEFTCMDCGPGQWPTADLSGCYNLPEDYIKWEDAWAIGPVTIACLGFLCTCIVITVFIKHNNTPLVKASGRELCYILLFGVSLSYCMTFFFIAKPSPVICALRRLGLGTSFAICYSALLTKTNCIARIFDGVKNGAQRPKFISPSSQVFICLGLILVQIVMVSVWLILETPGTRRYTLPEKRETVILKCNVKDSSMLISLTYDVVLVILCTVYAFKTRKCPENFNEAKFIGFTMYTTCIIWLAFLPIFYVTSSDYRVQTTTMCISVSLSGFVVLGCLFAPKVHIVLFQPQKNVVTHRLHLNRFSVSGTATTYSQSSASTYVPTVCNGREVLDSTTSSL
# [8] = EF1alpha-driven Renilla reporter with control 3'UTR suppression – Clone20-Shn3RL cells, dual-Glo, cherry-pick, set 2, counter-screen for Shn3 3'UTR targeting project, dose response (AID 720724); type: functional, cell-based; details: Dual-Go Shn3RL
# [9] = Shn3 3'UTR reporter signal decrease – cell-based, Clone20 osteoblasts, firefly luciferase, cherry-pick, set 2, Schnurri-3 inhibitor project, dose response (AID 720490); type: functional;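 also: actives lower the luminescence signal as inhibitors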
# [10] = loss of viability in HepG2 cells – cell-based, CellTiter-Glo, cherry-picked, cytotoxicity control for Shn3 inhibitor project, dose response (AID 624134); type: functional
# [11] = system: INS1; assay: INS-1E survival protection against cytokine death – cell-based, luminescence, retest, dose response (AID 449756); type: functional; details: Rattus norvegicus, INS1;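 also: cell death triggered by IL-1 beta plus TNF-alpha plus IFN-gamma mixture; protective hits raise ATP signal compared with cytokine alone wells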
# [12] = non-specific 3'UTR reporter inhibition in Clone20-Shn3RL – cell-based, Renilla luciferase, cherry-picked, counter-screen for Shn3 inhibitor project, dose response (AID 624133); type: functional
# [13] = reduction of Shn3 3'UTR-driven luciferase in osteoblasts – cell-based, Clone20 osteoblasts, firefly luciferase, cherry-picked, dose response (AID 624132); type: functional;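 also: firefly luciferase luminescence from reporter carrying the Shn3 3'UTR in osteoblasts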
# [14] = system: Vero; assay: viability loss in Vero cells – cell-based, plate reader, cherry-pick samples, cytotoxicity control, dose response (AID 687020); type: functional; details: Chlorocebus sabaeus
# [15] = viability loss in HepG2 hepatoma cells – cell-based, cherry-picks, set 5, cytotoxicity control, dose response (AID 1053118); type: functional
# [16] = target: Beta-galactosidase (Escherichia coli, UniProt Q8VNN2); assay: Dose response counterscreen for EBI2 assay utilizing the enzyme, b-galactosidase.; type: functional
# Beta-galactosidase, sequence (Q8VNN2 whole entry): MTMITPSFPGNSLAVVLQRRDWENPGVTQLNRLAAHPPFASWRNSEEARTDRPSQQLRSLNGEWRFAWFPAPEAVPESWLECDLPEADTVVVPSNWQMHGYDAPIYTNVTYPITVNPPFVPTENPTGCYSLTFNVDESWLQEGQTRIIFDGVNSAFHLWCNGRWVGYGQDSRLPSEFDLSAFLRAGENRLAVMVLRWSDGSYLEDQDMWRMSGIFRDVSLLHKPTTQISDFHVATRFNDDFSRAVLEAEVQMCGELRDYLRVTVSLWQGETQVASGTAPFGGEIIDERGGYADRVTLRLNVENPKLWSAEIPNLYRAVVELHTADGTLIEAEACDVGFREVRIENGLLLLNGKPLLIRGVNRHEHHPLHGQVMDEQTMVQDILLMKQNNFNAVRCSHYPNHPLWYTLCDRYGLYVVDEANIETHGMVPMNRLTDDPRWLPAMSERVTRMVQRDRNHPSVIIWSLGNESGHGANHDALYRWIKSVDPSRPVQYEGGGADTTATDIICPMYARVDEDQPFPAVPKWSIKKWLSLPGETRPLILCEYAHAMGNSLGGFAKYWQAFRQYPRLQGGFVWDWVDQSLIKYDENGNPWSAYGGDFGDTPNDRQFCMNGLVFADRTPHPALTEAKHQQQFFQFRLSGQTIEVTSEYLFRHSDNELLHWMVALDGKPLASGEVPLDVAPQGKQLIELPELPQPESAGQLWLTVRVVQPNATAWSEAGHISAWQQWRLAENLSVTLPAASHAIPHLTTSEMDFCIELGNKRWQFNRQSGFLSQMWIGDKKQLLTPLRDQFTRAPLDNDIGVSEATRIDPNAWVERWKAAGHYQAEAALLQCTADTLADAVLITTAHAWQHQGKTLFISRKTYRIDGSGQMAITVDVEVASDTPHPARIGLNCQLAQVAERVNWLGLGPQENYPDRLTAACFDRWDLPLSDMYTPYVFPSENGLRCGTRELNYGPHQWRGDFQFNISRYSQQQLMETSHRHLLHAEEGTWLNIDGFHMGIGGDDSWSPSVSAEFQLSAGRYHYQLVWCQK
# [17] = target: T2, Microphthalmia-associated transcription factor (Homo sapiens, UniProt O75030); assay: reducers of TRPM1 reporter luminescence, concentration series – cell-based, SK-MEL-5, cherry-picked, set 3, MITF inhibitor project, dose response (AID 493073); type: functional;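 also: SK-MEL-5 melanoma cells with luciferase driven by the MITF target TRPM1 promoter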
# T2 sequence (O75030 whole entry): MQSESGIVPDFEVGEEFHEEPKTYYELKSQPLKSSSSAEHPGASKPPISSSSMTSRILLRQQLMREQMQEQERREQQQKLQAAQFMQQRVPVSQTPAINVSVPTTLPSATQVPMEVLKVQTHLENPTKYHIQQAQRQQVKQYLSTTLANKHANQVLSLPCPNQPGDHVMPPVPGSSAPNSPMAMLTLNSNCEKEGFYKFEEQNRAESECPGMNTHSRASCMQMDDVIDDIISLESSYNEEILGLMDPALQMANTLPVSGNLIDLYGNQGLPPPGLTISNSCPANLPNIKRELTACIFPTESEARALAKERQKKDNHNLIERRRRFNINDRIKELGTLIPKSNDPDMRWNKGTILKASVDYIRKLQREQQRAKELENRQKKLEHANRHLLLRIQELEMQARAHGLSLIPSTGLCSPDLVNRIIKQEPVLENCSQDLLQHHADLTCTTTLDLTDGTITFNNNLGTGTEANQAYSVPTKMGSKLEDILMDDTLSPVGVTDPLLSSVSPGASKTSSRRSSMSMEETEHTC
# [18] = viability loss in HepG2 hepatoma cells – cell-based, ATP luminescence, cherry-pick, activator set 2, cytotoxicity control, dose response (AID 1053143); type: functional
# [19] = target: Apoptotic protease-activating factor 1 (Homo sapiens, UniProt O14727); type: functional
# Apoptotic protease-activating factor 1, sequence (O14727 whole entry): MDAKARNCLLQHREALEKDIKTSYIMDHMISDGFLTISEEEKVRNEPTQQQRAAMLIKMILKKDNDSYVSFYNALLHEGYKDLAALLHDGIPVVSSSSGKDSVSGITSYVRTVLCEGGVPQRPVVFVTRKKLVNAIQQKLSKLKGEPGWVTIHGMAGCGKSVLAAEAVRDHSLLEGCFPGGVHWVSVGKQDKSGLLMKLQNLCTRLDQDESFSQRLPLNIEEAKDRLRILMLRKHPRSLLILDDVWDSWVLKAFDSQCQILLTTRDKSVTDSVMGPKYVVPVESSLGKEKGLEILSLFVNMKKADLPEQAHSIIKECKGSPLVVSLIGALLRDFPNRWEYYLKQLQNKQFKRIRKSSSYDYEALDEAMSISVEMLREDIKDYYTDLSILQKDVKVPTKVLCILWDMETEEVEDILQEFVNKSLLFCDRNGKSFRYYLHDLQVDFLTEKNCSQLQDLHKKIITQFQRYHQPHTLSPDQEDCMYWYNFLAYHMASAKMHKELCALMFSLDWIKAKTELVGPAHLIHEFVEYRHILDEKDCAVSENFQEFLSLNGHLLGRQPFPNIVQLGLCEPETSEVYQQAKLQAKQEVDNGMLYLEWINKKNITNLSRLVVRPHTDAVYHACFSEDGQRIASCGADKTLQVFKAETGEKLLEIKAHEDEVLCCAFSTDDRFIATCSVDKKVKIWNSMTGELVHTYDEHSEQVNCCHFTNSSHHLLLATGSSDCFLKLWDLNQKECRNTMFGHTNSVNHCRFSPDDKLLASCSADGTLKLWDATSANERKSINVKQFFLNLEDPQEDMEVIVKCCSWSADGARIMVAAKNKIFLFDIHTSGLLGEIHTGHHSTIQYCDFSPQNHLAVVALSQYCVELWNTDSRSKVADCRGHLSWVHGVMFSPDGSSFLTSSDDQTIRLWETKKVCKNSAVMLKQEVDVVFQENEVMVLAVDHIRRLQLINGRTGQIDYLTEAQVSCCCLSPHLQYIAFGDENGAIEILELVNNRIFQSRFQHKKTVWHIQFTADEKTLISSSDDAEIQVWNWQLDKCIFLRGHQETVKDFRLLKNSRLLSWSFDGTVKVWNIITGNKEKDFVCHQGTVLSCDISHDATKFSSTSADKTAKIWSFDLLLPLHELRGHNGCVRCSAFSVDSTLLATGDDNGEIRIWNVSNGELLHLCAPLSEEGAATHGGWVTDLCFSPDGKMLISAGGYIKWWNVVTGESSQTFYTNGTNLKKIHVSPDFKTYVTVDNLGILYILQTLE
# [20] = target: Potassium channel subfamily K member 9 (Homo sapiens, UniProt Q9NPC2); assay: KCNK9 flux blockade, concentration-response – cell-based, FluxOR thallium flux, selectivity assay for TASK1 inhibitor project, SAR follow-up (AID 652211); type: functional;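 also: potency is for inhibitors of the channel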
# Potassium channel subfamily K member 9, sequence (Q9NPC2 whole entry): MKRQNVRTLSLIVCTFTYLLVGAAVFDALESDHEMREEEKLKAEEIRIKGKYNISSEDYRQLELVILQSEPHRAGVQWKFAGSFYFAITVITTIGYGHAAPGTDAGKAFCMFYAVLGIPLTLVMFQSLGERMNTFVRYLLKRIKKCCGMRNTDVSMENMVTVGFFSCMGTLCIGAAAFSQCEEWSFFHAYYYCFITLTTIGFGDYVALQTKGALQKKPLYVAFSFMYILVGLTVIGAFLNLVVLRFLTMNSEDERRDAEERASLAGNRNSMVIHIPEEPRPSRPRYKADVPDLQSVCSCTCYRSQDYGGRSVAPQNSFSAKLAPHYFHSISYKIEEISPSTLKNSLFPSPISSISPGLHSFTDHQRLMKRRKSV
# T1 sequence (P07550 whole entry): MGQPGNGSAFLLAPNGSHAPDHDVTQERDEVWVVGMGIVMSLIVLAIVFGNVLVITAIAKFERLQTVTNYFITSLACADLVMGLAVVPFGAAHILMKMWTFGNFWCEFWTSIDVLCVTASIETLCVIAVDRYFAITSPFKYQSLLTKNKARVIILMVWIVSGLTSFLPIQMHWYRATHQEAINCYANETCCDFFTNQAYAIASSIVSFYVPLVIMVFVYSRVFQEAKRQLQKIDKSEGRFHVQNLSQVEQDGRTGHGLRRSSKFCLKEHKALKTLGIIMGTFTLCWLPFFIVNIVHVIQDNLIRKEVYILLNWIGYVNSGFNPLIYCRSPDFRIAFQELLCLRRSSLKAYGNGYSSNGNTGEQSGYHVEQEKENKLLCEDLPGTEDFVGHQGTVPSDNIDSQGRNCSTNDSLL
compound,measurement,setting,value
CC(C)(C)c1ccc(OCC(=O)Nc2ccc(-c3nc4cccnc4o3)cc2)cc1,EC50,[1],0.0199 µM (active)
same,EC50,[2],0.0672 µM (active)
CNc1ccccc1C(C)(C)c1cc(-c2ccc(F)cc2)no1,IC50,[3],3.74 µM (active)
same,EC50,[4],> 29.9 µM (inactive)
CN1CCN(c2ccc(Cl)cc2NC(=O)c2ccc(S(=O)(=O)N3CCCCCC3)cc2)CC1,AC50,[5],5.58 µM (active)
same,IC50,[6],3.55 µM (active)
COc1ccc(C#Cc2ccc(C(=O)N3CCC[C@@H](O)C3)c(F)c2)cc1,IC50,[7],0.509 µM
CC(=O)N1c2ccc(S(=O)(=O)N3CCC(C(=O)N4CCN(c5cccc(C(F)(F)F)c5)CC4)CC3)cc2CC1C (stereo not given),AC50,[8],1.47 µM (active)
same,AC50,[9],1.54 µM (active)
same,AC50,[10],> 70 µM (inactive)
same,AC50,[11],7.43 µM (active)
same,AC50,[12],4.45 µM (active)
same,AC50,[13],1.28 µM (active)
Cc1cc(C)n2c(Nc3c(C)cccc3C)c(CCc3ccccc3)nc2n1,AC50,[14],33.3 µM (active)
N#C[C@H]1[C@@H](c2ccccc2C2=CCCCC2)[C@H](CO)N1S(=O)(=O)c1ccccc1,AC50,[15],> 47 µM (inactive)
S=C(NCC1CCCO1)N1CCN(c2nc(-c3ccc(Cl)cc3)cs2)CC1 (stereo not given),IC50,[16],> 80 µM (inactive)
CCc1ccc(NC2=CC(=O)C(=O)c3ccccc32)cc1,AC50,[17],3.59 µM (active)
same,AC50,[18],6.77 µM (active)
same,IC50,[19],3.54 µM (active)
O=C(Nc1cccc(NC(=O)c2ccccn2)c1)c1ccccc1,IC50,[20],5.37 µM (active)
